Results as given in PubChem BioAssay (NCI).
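A five-concentration, 48-hour dose response in 96-well plates underlies each endpoint, interpolated linearly between surrounding concentrations. GI50 = concentration required for 50% inhibition of growth. TGI: concentration producing complete growth inhibition.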

What was measured:
Assay in all cases: NCI anticancer screen, dose series, 48 h; in the data active = GI50 below about 0.43 µM; inactive = the rest
[1] = tested on: SF-295 CNS
[2] = tested on: U251 CNS
[3] = tested on: PC-3 prostate
[4] = tested on: HS 578T breast
[5] = tested on: K-562 leukemia
[6] = tested on: MCF7 breast
[7] = tested on: A498 renal
[8] = tested on: NCI-H460 lung
[9] = tested on: DU-145 prostate
[10] = tested on: UACC-62 melanoma
[11] = tested on: MDA-MB-435
[12] = tested on: HOP-62 NSCLC
[13] = tested on: EKVX NSCLC
[14] = tested on: SR leukemia
[15] = tested on: UO-31 renal
[16] = tested on: SF-539 CNS
[17] = tested on: HOP-92 NSCLC
[18] = tested on: LOX IMVI melanoma
[19] = tested on: HL-60(TB) leukemia
[20] = tested on: 786-0 renal
[21] = tested on: NCI-H522 lung
[22] = tested on: HCC-2998 colon
[23] = tested on: MOLT-4 leukemia
[24] = tested on: SK-MEL-28 melanoma
[25] = tested on: SK-OV-3 ovarian
[26] = tested on: TK-10 renal
[27] = tested on: A549 NSCLC
[28] = tested on: T-47D breast

COc1ccc(NC(=O)c2ccc(NC3=C(Cl)C(=O)N(Cc4ccccc4)C3=O)cc2)c(OC)c1
31.1 µM: TGI [19]
21.7 µM: TGI [22]
36.2 µM: TGI [23]
68.9 µM: TGI [21]
53.7 µM: TGI [12]
85.7 µM: TGI [9]
43 µM: TGI [5]
67.1 µM: TGI [16]
47 µM: TGI [17]
> 100 µM: TGI [3] | TGI [4] | TGI [6] | TGI [7] | TGI [8] | TGI [10] | TGI [13] | TGI [15] | TGI [18] | TGI [20] | TGI [24] | TGI [25] | TGI [26] | TGI [27] | TGI [28]
inactive: GI50 [1] 25.7 µM | GI50 [2] 27.2 µM | GI50 [3] 25.7 µM | GI50 [4] > 100 µM | GI50 [5] 8.18 µM | GI50 [6] 33.7 µM | GI50 [7] 61.1 µM | GI50 [8] 38.4 µM | GI50 [9] 28.8 µM | GI50 [10] 37.2 µM | GI50 [11] 16.7 µM | GI50 [12] 19 µM | GI50 [13] 64.9 µM | GI50 [14] 1.39 µM | GI50 [15] 40.5 µM | GI50 [16] 28.2 µM | GI50 [17] 6.27 µM | GI50 [18] 30.1 µM | GI50 [19] 13.2 µM | GI50 [20] 23.3 µM | GI50 [21] 19 µM | GI50 [22] 10.1 µM | GI50 [23] 9.94 µM | GI50 [24] 83.3 µM | GI50 [25] > 100 µM | GI50 [26] 22.8 µM | GI50 [27] 45.4 µM | GI50 [28] 38.9 µM
48.9 µM: TGI [11]
99.1 µM: TGI [1]
3.98 µM: TGI [14]
86.3 µM: TGI [2]
